This is an account of results in patent US20240009246A1, “CELLULAR-ANTIMICROBIAL COMBINATION COMPOSITION AND METHODS FOR TREATMENT OF BACTERIAL INFECTIONS OF JOINTS AND SOFT TISSUES” (priority 2021, published 2024).

Values after ≈ are worked out from the molar mass of the structure shown. Where two headings read alike, the source gives them in different places. Where only a bound is given, the exact number is not on record here.

Data set [1] relates to Chondrocytes. Kind of data set: in vitro cytotoxic activity of antibiotics against horse chondrocytes. As to conditions: for IC50: Equus caballus, Chondrocyte, read-out: Concentration (equine IC50). The class given is cell-based. From the text:
(§1) Table 1 and 2 represent in vitro evaluation of the cytotoxic activity of different conventional antibiotics, as assessed for toxicity against dog cells (Table 1) or horse cells (Table 2). Similar toxicity profiles would also be anticipated for human cells.
(§2) The antibiotics with the highest IC50 values are considered non-cytotoxic, while those with lower values are considered more cytotoxic, and unsuitable for co-administration with activated MSC or activated iMSCs. For example, amikacin and enrofloxacin are more cytotoxic to joint cells (e.g. synovial cells and chondrocytes) than vancomycin, and should not be used for preparing the antibiotic plus activated MSCs formulations of uses herein, whereas vancomycin is one of the preferred antibiotics for these formulations for treating gram+ infections.
(§3) Table 2 represents and overview of equine IC50s of certain antibiotics of use herein

In data set [2] the test system is Synovial Cells. In words: in vitro cytotoxic activity of antibiotics against horse synovial cells. Format: cell-based. As to conditions: for IC50: Equus caballus, Synovial cell, read-out: Concentration (equine IC50).
Source text: as §1, §2, §3

A short description of data set [3]: in vitro cytotoxic activity of antibiotics against dog chondrocytes. Format: cell-based. The arrangement: IC50 (cytotoxicity): unit not given beside the values. An excerpt:
(§4) Table 1 and 2 represent in vitro evaluation of the cytotoxic activity of different conventional antibiotics, as assessed for toxicity against dog cells (Table 1) or horse cells (Table 2). Similar toxicity profiles would also be anticipated for human cells. The antibiotics with the highest IC50 values are considered non-cytotoxic, while those with lower values are considered more cytotoxic, and unsuitable for co-administration with activated MSC or activated iMSCs.

Data set [4] is described as follows: in vitro cytotoxic activity of antibiotics against dog synoviocytes. The class given is cell-based.
Source text: as §4

For data set [5], the system named is MRSA strain of Staphylococcus aureus. In words: equine model of septic arthritis (joint infected with MRSA), intra-articular treatment.
Data set [6] concerns CHONDROCYTES
Kind of data set: in vitro cytotoxic activity of antibiotics against dog chondrocytes. The class given is cell-based. The arrangement: IC50 (cytotoxicity): unit not given beside the values.
Source text: as §4

On to `NCC[C@H](O)C(=O)N[C@@H]1C[C@H](N)[C@@H](O[C@H]2O[C@H](CN)[C@@H](O)[C@H](O)[C@H]2O)[C@H](O)[C@H]1O[C@H]1O[C@H](CO)[C@@H](O)[C@H](N)[C@H]1O` [Amikacin], for which the IC50 is under 390 µg/mL in data set [1] (equine chondrocytes), 799 µg/mL (≈ 1.36 mM) in data set [2] (equine synovial cells), 2740 µg/mL (≈ 4.68 mM) in data set [3] (dog) and 2260 µg/mL (≈ 3.86 mM) in data set [4] (dog).
For `CO/N=C(\C(=O)N[C@@H]1C(=O)N2C(C(=O)O)=C(CSC(=O)c3ccco3)CS[C@H]12)c1csc(N)n1` [Ceftiofur Sodium], the IC50 in data set [1] (equine chondrocytes) was 4270 µg/mL; in data set [2] (equine synovial cells), over 25000 µg/mL.
For the compound `CC1(C)S[C@@H]2[C@H](NC(=O)Cc3ccccc3)C(=O)N2[C@H]1C(=O)[O-].[K+]` [Potassium penicillin], the “Concentration (equine IC50)” value in data set [1] (equine chondrocytes) came to 11610 µg/mL.
As to Ampicillin sulbactam, the “Concentration (equine IC50)” value in data set [1] (equine chondrocytes) and in data set [2] (equine synovial cells) was over 25000 µg/mL in each case.
On to `CS(=O)(=O)c1ccc([C@@H](O)[C@@H](CF)NC(=O)C(Cl)Cl)cc1` [Florfenicol], for which the IC50 in data set [1] (equine chondrocytes) stood at 2190 µg/mL (≈ 6.11 mM); in data set [2] (equine synovial cells), 2960 µg/mL (≈ 8.25 mM).
Take Gentamicin: the “Concentration (equine IC50)” value in data set [1] (equine chondrocytes) was found to be 708.3 µg/mL; in data set [2] (equine synovial cells), 512.5 µg/mL.
In the case of `C[C@@H](O)[C@H]1C(=O)N2C(C(=O)O)=C(SCCN=CN)C[C@H]12` [Imipenem], the IC50 in data set [1] (equine chondrocytes) and in data set [2] (equine synovial cells) was over 25000 µg/mL in each case.
With `CN[C@H](CC(C)C)C(=O)N[C@H]1C(=O)N[C@@H](CC(N)=O)C(=O)N[C@H]2C(=O)N[C@H]3C(=O)N[C@H](C(=O)N[C@H](C(=O)O)c4cc(O)cc(O)c4-c4cc3ccc4O)[C@H](O)c3ccc(c(Cl)c3)Oc3cc2cc(c3O[C@@H]2O[C@H](CO)[C@@H](O)[C@H](O)[C@H]2O[C@H]2C[C@](C)(N)[C@H](O)[C@H](C)O2)Oc2ccc(cc2Cl)[C@H]1O` [Vancomycin], the IC50 was determined as 7310 µg/mL (≈ 5.04 mM) in data set [1]; 7810 µg/mL (≈ 5.39 mM) in data set [2]; 8640 µg/mL (≈ 5.97 mM) in data set [3] (dog chondrocytes, read-out: IC50 (cytotoxicity)); 13800 µg/mL (≈ 9.5 mM) in data set [4] (dog synoviocytes, read-out: IC50 (cytotoxicity)). Further, the “overall outcome of joint infection” value in data set [5] (control euthanized day 7, combined treatment day 14) is given as “uncontrolled joint infection”. The “circumference of the infected tarsocrural joint (effusion)” value in data set [5] (infected joint vs uninfected joint) is given as “remained very swollen”. In addition, the “body temperature (fever) course” value in data set [5] (over time after MRSA joint infection) is “body temperature spikes were noted at two time points”. Further, in data set [5] (spikes), the “body temperature in peaks” value is “around 102 ° F”.
As for `CCN1CCN(c2cc3c(cc2F)c(=O)c(C(=O)O)cn3C2CC2)CC1` [Enrofloxacin], the IC50 in data set [1] (equine chondrocytes) amounted to 4590 µg/mL (≈ 12.8 mM); in data set [4] (dog), 1250 µg/mL (≈ 3.47 mM). Also, in data set [6], the “IC50 (cytotoxicity)” value is on record as “.078< × <1.56”.
On to `CC(C)(O/N=C(\C(=O)N[C@@H]1C(=O)N2C(C(=O)[O-])=C(C[n+]3ccccc3)CS[C@H]12)c1csc(N)n1)C(=O)O` [Ceftazidime], for which the IC50 worked out at 3590 µg/mL (≈ 6.57 mM) in data set [1] (equine chondrocytes), 3360 µg/mL (≈ 6.15 mM) in data set [2] (equine synovial cells), 3160 µg/mL (≈ 5.78 mM) in data set [3] (dog) and 1620 µg/mL (≈ 2.97 mM) in data set [4] (dog).
Take `NC[C@H]1O[C@H](O[C@H]2[C@H](O)[C@@H](O[C@H]3O[C@H](CO)[C@@H](O)[C@H](N)[C@H]3O)[C@H](N)C[C@@H]2N)[C@H](N)C[C@@H]1O` [Tobramycin]: the IC50 in data set [1] (equine chondrocytes) is over 25000 µg/mL; in data set [2] (equine synovial cells) it was 9490 µg/mL (≈ 20.3 mM).
For the compound `Cc1nnc(SCC2=C(C(=O)O)N3C(=O)[C@@H](NC(=O)Cn4cnnn4)[C@H]3SC2)s1` [Cefazolin], the IC50 in data set [1] (equine chondrocytes) stood at 3950 µg/mL (≈ 8.69 mM); in data set [2] (equine synovial cells) it was 1160 µg/mL (≈ 2.54 mM); in data set [3] (dog), 1670 µg/mL (≈ 3.67 mM); in data set [4] (dog) it was 1480 µg/mL (≈ 3.26 mM).
For `C[C@H]1c2cccc(O)c2C(=O)C2=C(O)[C@]3(O)C(=O)C(C(N)=O)=C(O)[C@@H](N(C)C)[C@@H]3[C@@H](O)[C@@H]21` [Doxycycline], the IC50 in data set [1] (equine chondrocytes) worked out at 1030 µg/mL (≈ 2.32 mM); in data set [2] (equine synovial cells), 711 µg/mL (≈ 1.6 mM).
For Neomycin, the “Concentration (equine IC50)” value in data set [1] (equine chondrocytes) turned out to be 821.9 µg/mL; in data set [2] (equine synovial cells), 6274 µg/mL.
As to `CC1(C)S[C@@H]2[C@H](NC(=O)[C@H](N)c3ccc(O)cc3)C(=O)N2[C@H]1C(=O)O` [Amoxicillin], the IC50 was 14000 µg/mL (≈ 38.3 mM) in data set [1] (equine chondrocytes) and over 25000 µg/mL in data set [2] (equine synovial cells).
